# Like-named read-outs stand apart in the source and are kept apart here.
# Assays:
# COS7 [1] = assay: Effect of plating time on uptake of NAC-MTN and MTN, fluorescence (Example 11); format: cell-based, green monkey
# Experimental: The effect of plating time on the differential rates of uptake between NAC-MTN and MTN were assayed in cells treated <1 hour and 24 hours after plating.
# On day 1, MCF7, COS7, 3T3, and BHK21 cells were plated out in a standard tissue culture plate. After incubation of 20 minutes samples were added to cells in rows A, C, E, and G. Cells were incubated at 37C in a standard atmosphere of 5%CO2.
# On day 2, samples were added to rows D, F, and H and the fluorescence was obtained EX620/EM680 S=80. Samples were removed from A,C,E and G, replaced with media and fluorescence read again. On day 2 observed significant drug toxicity in cells of rows A,C, E, G. Sample addition was postponed in row B since MCF7 were not yet confluent.
# On day 3, added samples to cells in row B containing confluent MCF7's, removed samples from rows D, F, and H replaced with media and read fluorescence.
# Fluorescence data from cells taken after removal of media was used to quantitate total MTN retained in the cells. Fluorescence data were converted to mg/ml MTN using a standard curve prepared with free MTN or NAC-MTN.
# The percentage difference in fluorescence between cells treated with NAC-MTN or MTN alone was used to compare relative drug uptake.
# The MTN fluorescence ratios were obtained by dividing MTN fluorescence of cells incubated for 24 hours by fluorescence of cells incubated 30 minutes. […] The uptake in BHK21 was roughly equivalent for NAC-MTN regardless of plate adherence, however it should be noted that BHK21 adhere very rapidly to the plate.
# Fluorescence data were converted to micromolar drug concentrations (uM MTN) using a standard curve for either nucleic acid bound or unbound drug, and drug uptake ratios were obtained by dividing the t(24 hour)/t(30 min.). The ratios of absolute drug concentration per well show more dramatic differences in uptake as shown below.
# [2] = intravenous administration; cited from earlier work
# [3] = In vivo MTN distribution in organs after single i.v. dose (Example 15, EX102005); parameters: species or system mice; details: iv, 0.075 mg MTN per mouse i.v.
# Experimental: Procedure: Prior to formulation of MTN with carrier, the DNA carrier was standardized and assayed for loading limits with MTN by absorbance spectrometry. […] Herring sperm […] […] One milliliter (1 ml) of each homogenate was then transferred to a 1.7 ml centrifuge tube and centrifuged for 10 min at 10000 rcf. Supernatants were removed and fluorescence of 0.3 ml of samples was read at 620/680 nm s=50. […] Total MTN was calculated by converting fluorescence data to mg/ml MTN using a MTN standard curve. The mg/ml MTN was then multiplied by total vol. homogenate to obtain total MTN per organ.
# COS7 [4] = assay: Toxicity of NAC-MTN vs CD-MTN and MTN, MTT (Example 9, EX042105); format: cell-based, green monkey
# Experimental: FIG. 4. […] The relative toxicity of NAC-MTN was compared with MTN and CD-MTN in four cell lines, MCF7(breast cancer), COS7green monkey kidney (SV40 transformed), 3T3 (mouse fibroblast), and BHK21(hamster kidney). Cells were treated with identical amounts of MTN formulated as either NAC-MTN, MTN only, or poly-beta-cyclodextrin-sulfylbutylether(CD-MTN). After an incubation period, cell viability was assayed with MTT assay. The differences in toxicity between NAC-MTN and MTN or NAC-MTN and CD-MTN are shown as % difference. Greater percentage difference correlates to more reduction in relative NAC-MTN toxicity.
# MCF7, COS7, 3T3, and BHK21 cells were plated out in duplicate rows of equivalent cell density in 100ul final volume. Initial cell densities were 2000 cells/well.
# Preparing NAC-MTN, CD-MTN, and MTN only. Combined 180 ul of 0.05 mg/ml MTN with […] 0.1 mg/ml herring sperm genomic DNA (HSGDNA, Promega), 1500 ul of 2× DMEM media containing 20% FBS to give 3.0 ml final volume and 12% final drug loading in the dsDNA. For MTN only, 180 ul of MTN was combined with 1320 ul H2O and 1500 ul 2× DMEM. […]
# Aspirated media in plate and replaced with 50 ul of 0.5 mg/ml MTT in 1× media, incubated 3 hours, aspirated, air dried 5 min and dissolved in 100 ul of isopropyl, read OD at A570. […]
smiles,measurement,setting,value
"O=C1c2c(O)ccc(O)c2C(=O)c2c(NCCNCCO)ccc(NCCNCCO)c21 [MTN, mitoxantrone]",MTN FLUOR Ratio of t(24)/t(<1),COS7 [1],0.70
same,FLUOR (MTN fluorescence in cells),COS7 [1]; cells treated 24 hour after plating,15289
same,FLUOR (MTN fluorescence in cells),COS7 [1]; cells treated <1 hour after plating,13814
same,Ratio uM MTN of t(24)/t(<1),COS7 [1]; from standard curve for bound or unbound drug,1.2
same,elimination half life,[2],12 days
same,concentration at 1 h,"[3]; heart, read-out: Density of MTN in tissue: Heart",96000 ng/g
same,concentration at 1 h,"[3]; kidney, read-out: Density of MTN in tissue: Kidney",49000 ng/g
same,concentration at 1 h,"[3]; liver, read-out: Density of MTN in tissue: Liver",10000 ng/g
same,concentration at 1 h,"[3]; lung, read-out: Density of MTN in tissue: Lung",43000 ng/g
same,% tox. relative to media only,"COS7 [4]; 2 uM final MTN, MTT 48 hours after adding samples",56.65%
same,toxic effect,"COS7 [4]; after 24 hours, 2 uM MTN",no toxic effect

# Source: patent US20070225213A1, “Nucleic acid carriers for delivery of therapeutic agents” (priority 2006, published 2007)
